Laboratory results: patent US20260028365A1 (BIOGEN MA INC., priority 2022, published 2026)
Read-outs that look alike come from different tables or passages of the source.

Assays:
[1] = target: Tyk2 (Homo sapiens (Human), UniProt P29597); test: pSTAT4 Cell Assay (MSD, NK92 cells); type: cell-based
[2] = target: JH2 domain of human Tyk2 (Homo sapiens (Human), UniProt P29597); test: JH2 Biochemical Assay (TR-FRET probe displacement); type: binding
[3] = JH2 domain of human Tyk2, TR-FRET probe displacement
[4] = TR-FRET probe displacement, JH2 domain of human Tyk2
[5] = TR-FRET probe displacement, JH2 domain

Chain of JH2 domain of human Tyk2 (P29597 575-876): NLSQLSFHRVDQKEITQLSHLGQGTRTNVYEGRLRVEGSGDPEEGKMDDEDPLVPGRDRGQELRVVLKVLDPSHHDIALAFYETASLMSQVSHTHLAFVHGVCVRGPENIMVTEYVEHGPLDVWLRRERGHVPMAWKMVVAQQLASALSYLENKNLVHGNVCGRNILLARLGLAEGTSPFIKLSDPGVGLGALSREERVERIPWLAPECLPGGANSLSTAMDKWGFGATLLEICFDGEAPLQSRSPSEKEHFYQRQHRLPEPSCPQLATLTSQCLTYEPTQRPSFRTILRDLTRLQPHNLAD
Chain of Tyk2 (P29597 whole entry, the tested form may be a part): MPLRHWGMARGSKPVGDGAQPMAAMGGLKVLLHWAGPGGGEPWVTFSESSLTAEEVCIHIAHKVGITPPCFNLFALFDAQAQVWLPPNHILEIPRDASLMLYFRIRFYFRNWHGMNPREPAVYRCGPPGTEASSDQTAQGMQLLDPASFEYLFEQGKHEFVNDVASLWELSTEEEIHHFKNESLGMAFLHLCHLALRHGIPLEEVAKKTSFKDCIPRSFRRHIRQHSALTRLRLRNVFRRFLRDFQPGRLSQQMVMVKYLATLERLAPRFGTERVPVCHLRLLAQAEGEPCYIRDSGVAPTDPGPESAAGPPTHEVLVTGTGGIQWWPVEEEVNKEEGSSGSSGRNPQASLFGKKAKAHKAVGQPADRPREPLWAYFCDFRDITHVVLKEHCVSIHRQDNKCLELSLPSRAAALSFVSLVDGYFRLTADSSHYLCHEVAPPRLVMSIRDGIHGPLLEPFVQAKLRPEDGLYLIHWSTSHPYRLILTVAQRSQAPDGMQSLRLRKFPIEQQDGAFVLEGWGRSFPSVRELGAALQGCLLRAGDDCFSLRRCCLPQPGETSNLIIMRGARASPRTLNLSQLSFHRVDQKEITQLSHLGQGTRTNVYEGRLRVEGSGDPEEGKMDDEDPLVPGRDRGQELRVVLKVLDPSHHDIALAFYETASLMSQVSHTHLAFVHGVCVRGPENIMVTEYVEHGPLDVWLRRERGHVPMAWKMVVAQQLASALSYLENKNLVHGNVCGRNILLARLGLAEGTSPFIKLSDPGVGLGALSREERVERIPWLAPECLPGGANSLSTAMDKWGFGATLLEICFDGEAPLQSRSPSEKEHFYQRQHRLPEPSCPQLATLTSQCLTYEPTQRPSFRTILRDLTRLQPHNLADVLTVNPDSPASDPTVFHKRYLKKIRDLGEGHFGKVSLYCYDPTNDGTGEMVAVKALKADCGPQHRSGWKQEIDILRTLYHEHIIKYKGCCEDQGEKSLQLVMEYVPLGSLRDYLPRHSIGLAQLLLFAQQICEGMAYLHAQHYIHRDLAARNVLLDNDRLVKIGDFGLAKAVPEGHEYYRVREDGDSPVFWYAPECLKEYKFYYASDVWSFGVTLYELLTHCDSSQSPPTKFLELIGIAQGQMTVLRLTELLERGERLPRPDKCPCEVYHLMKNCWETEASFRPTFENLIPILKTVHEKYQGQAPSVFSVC

| Structure (SMILES) | IC50 ([1]; MSD) [nM] | IC50 [2, 3] [nM] | IC50 [2, 4] [nM] | IC50 [1] [nM] | IC50 [2, 5] [nM] |
| --- | --- | --- | --- | --- | --- |
| CC(=O)Nc1cc(Nc2cc(C)nc(C(C)(F)F)n2)c(OCC(C)OC(C)(C)C)cn1 (stereo not drawn) [Example 427, N-(5-(2-(tert-butoxy)propoxy)-4-((2-(1,1-difluoroethyl)-6-methylpyrimidin-4-yl)amino)pyridin-2-yl)acetamide] | 10 to 100 | ≤ 10 |  |  |  |
| CC(=O)Nc1cc(Nc2cc(C)nc(C(C)(F)F)n2)c(-c2ccc3c(n2)CCC3=O)cn1 [Example 677, N-(4-((2-(1,1-difluoroethyl)-6-methylpyrimidin-4-yl)amino)-5-(5-oxO6,7-dihydrO5H-cyclopenta[b]pyridin-2-yl)pyridin-2-yl)acetamide] | ≤ 10 | ≤ 10 |  |  |  |
| COCCOc1cnc(NC(C)=O)cc1Nc1cccc(C(C)(F)F)n1 [Example 56, N-(4-((6-(1,1-difluoroethyl)pyridin-2-yl)amino)-5-(2-methoxyethoxy)pyridin-2-yl)acetamide] | ≤ 10 |  | ≤ 10 |  |  |
| COCCOc1cnc(NC(C)=O)cc1Nc1nc(C)cc(C(C)(F)F)n1 [Example 78] | 10 to 100 |  | ≤ 10 |  |  |
| COc1cc(COc2cnc(NC(C)=O)cc2Nc2cc(C)nc(C(C)(F)F)n2)on1 [Example 322, N-(4-((2-(1,1-difluoroethyl)-6-methylpyrimidin-4-yl)amino)-5-((3-methoxyisoxazol-5-yl)methoxy)pyridin-2-yl)acetamide] | 10 to 100 |  | ≤ 10 |  |  |
| CCOc1cnc(NC(C)=O)cc1Nc1cc(-c2cnn(C(F)F)c2)nc(C(C)(F)F)n1 [Example 303, N-(4-((2-(1,1-difluoroethyl)-6-(1-(difluoromethyl)-1H-pyrazol-4-yl)pyrimidin-4-yl)amino)-5-ethoxypyridin-2-yl)acetamide] | 10 to 100 |  | ≤ 10 |  |  |
| COC1CCN(Cc2ccc(-c3cnc(NC(C)=O)cc3Nc3ccnc(C(C)(F)F)n3)nc2)C1 (stereo not drawn) [Example 881, N-(4′-((2-(1,1-difluoroethyl)pyrimidin-4-yl)amino)-5-((3-methoxypyrrolidin-1-yl)methyl)-[2,3′-bipyridin]-6′-yl)acetamide] |  |  |  | ≤ 10 | ≤ 10 |
| COc1cnc(NC(C)=O)cc1Nc1cc(-c2cc(OC)c3nc(C)cn3c2)nc(C(C)(F)F)n1 [Example 401, N-(4-((2-(1,1-difluoroethyl)-6-(8-methoxy-2-methylimidazo[1,2-a]pyridin-6-yl)pyrimidin-4-yl)amino)-5-methoxypyridin-2-yl)acetamide] | 100 to 1000 | ≤ 10 |  |  |  |
| COCCn1ccc(-c2cnc(NC(C)=O)cc2Nc2cc(C)nc(C(C)(F)F)n2)n1 [Example 257, N-(4-((2-(1,1-difluoroethyl)-6-methylpyrimidin-4-yl)amino)-5-(1-(2-methoxyethyl)-1H-pyrazol-3-yl)pyridin-2-yl)acetamide] | ≤ 10 |  | ≤ 10 |  |  |
| CC(=O)Nc1cc(Nc2cccc(OC(F)F)n2)c(-c2ccncn2)cn1 [Example 171, N-(4-((6-(difluoromethoxy)pyridin-2-yl)amino)-5-(pyrimidin-4-yl)pyridin-2-yl)acetamide] | 100 to 1000 |  | ≤ 10 |  |  |
| CCc1cc(Nc2cc(NC(C)=O)ncc2-c2ccn(C)n2)nc(C(C)(F)F)n1 [Example 204, N-(4-((2-(1,1-difluoroethyl)-6-ethylpyrimidin-4-yl)amino)-5-(1-methyl-1H-pyrazol-3-yl)pyridin-2-yl)acetamide] | ≤ 10 |  | ≤ 10 |  |  |
| CC(=O)Nc1cc(Nc2ccnc(C(C)(F)F)n2)c(-c2cnc(N3CC4(CCOC4)C3)cn2)cn1 [Example 872, N-(5-(5-(6-oxa-2-azaspiro[3.4]octan-2-yl)pyrazin-2-yl)-4-((2-(1,1-difluoroethyl)pyrimidin-4-yl)amino)pyridin-2-yl)acetamide] |  |  |  | 10 to 100 | ≤ 10 |
| CC(=O)Nc1cc(Nc2cc(C)nc(C(C)(F)F)n2)c([C@@H]2CCCO2)cn1 (single isomer, unassigned) [Example 279, (S)—N-(4-((2-(1,1-difluoroethyl)-6-methylpyrimidin-4-yl)amino)-5-(tetrahydrofuran-2-yl)pyridin-2-yl)acetamide or (R)-N-(4-((2-(1,1-difluoroethyl)-6-methylpyrimidin-4-yl)amino)-5-(tetrahydrofuran-2-yl)pyridin-2-yl)acetamide] | 100 to 1000 |  | 10 to 100 |  |  |
| CNC(=O)Nc1cc(Nc2ccnc(C(C)(F)F)n2)c(-c2nc3c(s2)CN(C)CC3)cn1 [Example 795, 1-(4-((2-(1,1-difluoroethyl)pyrimidin-4-yl)amino)-5-(5-methyl-4,5,6,7-tetrahydrothiazolo[5,4-c]pyridin-2-yl)pyridin-2-yl)-3-methylurea] |  |  |  | ≤ 10 | ≤ 10 |
| COc1cnc(NC(C)=O)cc1Nc1cc(-c2cnn(C3COC3)c2)nc(C(C)(F)F)n1 [Example 377, N-(4-((2-(1,1-difluoroethyl)-6-(1-(oxetan-3-yl)-1H-pyrazol-4-yl)pyrimidin-4-yl)amino)-5-methoxypyridin-2-yl)acetamide] | 10 to 100 | 10 to 100 |  |  |  |
| CCc1cc(Nc2cc(NC(C)=O)ncc2-c2ccc(COC)cn2)nc(C2CCOC2)n1 (stereo not drawn) [Example 569, N-(4′-((6-ethyl-2-(tetrahydrofuran-3-yl)pyrimidin-4-yl)amino)-5-(methoxymethyl)-[2,3′-bipyridin]-6′-yl)acetamide] | ≤ 10 | ≤ 10 |  |  |  |
| CC(=O)Nc1cc(Nc2cc(C)nc(C(C)(F)F)n2)c(-c2ncns2)cn1 [Example 235, N-(4-((2-(1,1-difluoroethyl)-6-methylpyrimidin-4-yl)amino)-5-(1,2,4-thiadiazol-5-yl)pyridin-2-yl)acetamide] | ≤ 10 |  | ≤ 10 |  |  |
| CC(=O)Nc1cc(Nc2cc(C)nc(C(C)(F)F)n2)c(-c2ccn(CC(C)(C)O)n2)cn1 [Example 228, N-(4-((2-(1,1-difluoroethyl)-6-methylpyrimidin-4-yl)amino)-5-(1-(2-hydroxy-2-methylpropyl)-1H-pyrazol-3-yl)pyridin-2-yl)acetamide] | ≤ 10 |  | ≤ 10 |  |  |
| CC(=O)Nc1cc(Nc2cc(C)nc(C(C)(F)F)n2)c(OCC2CC23CCOC3)cn1 (stereo not drawn) [Example 432, N-(5-((5-oxaspiro[2.4]heptan-1-yl)methoxy)-4-((2-(1,1-difluoroethyl)-6-methylpyrimidin-4-yl)amino)pyridin-2-yl)acetamide] | 10 to 100 | ≤ 10 |  |  |  |
| CC(=O)Nc1cc(Nc2cc(C)nc(C(C)(F)F)n2)c(OCC2(F)CC2)cn1 [Example 99, N-(4-((2-(1,1-difluoroethyl)-6-methylpyrimidin-4-yl)amino)-5-((1-fluorocyclopropyl)methoxy)pyridin-2-yl)acetamide] | ≤ 10 |  | ≤ 10 |  |  |
| CC(=O)Nc1cc(Nc2cc(C)nc(C34CCC(C3)OC4)n2)c(-c2ccn(C)n2)cn1 (stereo not drawn) [Example 557, N-(4-((2-(2-oxabicyclo[2.2.1]heptan-4-yl)-6-methylpyrimidin-4-yl)amino)-5-(1-methyl-1H-pyrazol-3-yl)pyridin-2-yl)acetamide] | 10 to 100 | ≤ 10 |  |  |  |
| COc1cnc(Oc2cnc(NC(C)=O)cc2Nc2cc(C)nc(C(C)(F)F)n2)cn1 [Example 356, N-(4-((2-(1,1-difluoroethyl)-6-methylpyrimidin-4-yl)amino)-5-((5-methoxypyrazin-2-yl)oxy)pyridin-2-yl)acetamide] | ≥ 1000 |  | ≥ 1000 |  |  |
| CCOc1cnc(NC(=O)CC)cc1Nc1cc(C)nc(C(C)(F)F)n1 [Example 9, N-(4-((2-(1,1-difluoroethyl)-6-methylpyrimidin-4-yl)amino)-5-ethoxypyridin-2-yl)propionamide] | 10 to 100 |  | ≤ 10 |  |  |
| CCc1cc(Nc2cc(NC(C)=O)ncc2OCCN2CCOCC2)nc(C(C)(F)F)n1 [Example 70, N-(4-((2-(1,1-difluoroethyl)-6-ethylpyrimidin-4-yl)amino)-5-(2-morpholinoethoxy)pyridin-2-yl)acetamide] | ≤ 10 |  | ≤ 10 |  |  |
| CC(=O)Nc1cc(Nc2ccnc(C(C)(F)F)n2)c(-c2nnc(N3CCN(C)CC3)s2)cn1 [Example 774, N-(4-((2-(1,1-difluoroethyl)pyrimidin-4-yl)amino)-5-(5-(4-methylpiperazin-1-yl)-1,3,4-thiadiazol-2-yl)pyridin-2-yl)acetamide] |  |  |  | ≤ 10 | ≤ 10 |
| CC(=O)Nc1cc(Nc2ccnc(C(C)(F)F)n2)c(-c2cnc(N3CCC4(COC4)C3)cn2)cn1 [Example 869, N-(5-(5-(2-oxa-6-azaspiro[3.4]octan-6-yl)pyrazin-2-yl)-4-((2-(1,1-difluoroethyl)pyrimidin-4-yl)amino)pyridin-2-yl)acetamide] |  |  |  | 100 to 1000 | 10 to 100 |
| COc1cnc(NC(C)=O)cc1Nc1cc(-c2cnn(C(C)C)c2)nc(C(C)(F)F)n1 [Example 363, N-(4-((2-(1,1-difluoroethyl)-6-(1-isopropyl-1H-pyrazol-4-yl)pyrimidin-4-yl)amino)-5-methoxypyridin-2-yl)acetamide] | ≤ 10 |  | ≤ 10 |  |  |
| CC(=O)Nc1cc(Nc2cc(C)nc(C(C)(F)F)n2)c(-c2ncn(C)n2)cn1 [Example 157, N-(4-((2-(1,1-difluoroethyl)-6-methylpyrimidin-4-yl)amino)-5-(1-methyl-1H-1,2,4-triazol-3-yl)pyridin-2-yl)acetamide] | 100 to 1000 |  | ≤ 10 |  |  |
| CC(=O)Nc1cc(Nc2cc(OC3CC3)nc(C(C)(F)F)n2)c(OC(F)(F)F)cn1 [Example 93, N-(4-((6-cyclopropoxy-2-(1,1-difluoroethyl)pyrimidin-4-yl)amino)-5-(trifluoromethoxy)pyridin-2-yl)acetamide] | 100 to 1000 |  | ≤ 10 |  |  |
| CC(=O)Nc1cc(Nc2cc(C)nc(C(C)(F)F)n2)c(OCc2cncc(F)c2)cn1 [Example 474, N-(4-((2-(1,1-difluoroethyl)-6-methylpyrimidin-4-yl)amino)-5-((5-fluoropyridin-3-yl)methoxy)pyridin-2-yl)acetamide] | 10 to 100 | ≤ 10 |  |  |  |
